The source of these data is ChEMBL document CHEMBL6109105, “Design, synthesis and antibacterial evaluation of oxazolidinone derivatives containing N-methylglycyl or quaternary ammonium salts” (Bioorg Med Chem, 2025).

Broadly, the HC50 is the concentration that lyses half of the red blood cells.

For data set [1], the system named is Enterococcus faecalis. As to the kind of experiment: Disruption of preformed biofilm in Enterococcus faecalis assessed as bacterial survival rate at 32 times of MIC measured after 24 hrs relative to control. The format is functional.
The next data set concerns Escherichia coli. As to the kind of experiment: Antibacterial activity against Escherichia coli ATCC 25922 assessed as inhibition of bacterial growth incubated for 16 to 18 hrs by microbroth dilution method. As to conditions: time 16-18 hrs, read-out: MIC100. Format: functional. Background: Broth dilution looks for growth in wells or tubes with falling amounts of substance.

The next data set deals with Staphylococcus aureus. As to the kind of experiment: Antibacterial activity against Staphylococcus aureus ATCC 29213 assessed as inhibition of bacterial growth incubated for 16 to 18 hrs by microbroth dilution method. Format: functional. The note with it: time 16-18 hrs, read-out: MIC100.
Data set [2] is described as follows: Hemolytic activity in sheep RBC assessed as hemolysis incubated for 1 hrs by microplate reader analysis. The format is toxicity, cell-based, Ovis aries, Erythrocyte. The note with it: sheep red blood cells.
The test system of data set [3] is Enterococcus faecalis. As to the kind of experiment: Disruption of preformed biofilm in Enterococcus faecalis assessed as bacterial survival rate at 16 times of MIC measured after 24 hrs relative to control. Format: functional.
The subject of data set [4] is Cell membrane. As to the kind of experiment: Induction of cytoplasmic membrane depolarization in Enterococcus faecalis assessed as increase in fluorescence intensity by DiSC35 dye based microplate reader analysis.
Data set [5] has as its system Enterococcus faecalis. As to the kind of experiment: Antibacterial activity against Enterococcus faecalis assessed as post-antibiotic effect at 8 times of MIC measured up to 8 hrs. Format: functional.
For data set [6], the system named is Enterococcus faecalis. As to the kind of experiment: Post-antibiotic affect in Enterococcus faecalis assessed as reduction in growth rate at 8 times of MIC measured after 1 hrs. The format is functional, organism-based.
The subject of data set [7] is Enterococcus faecalis. As to the kind of experiment: Antipersister-activity against in Enterococcus faecalis assessed as log reduction in persistent cells at 32 times of MIC preincubated with 100 times of MIC of rifampicin for 24 hrs followed by compound addition and measured after 8 hrs by drop plate counting method. The format is functional.
In data set [8] the test system is Enterococcus faecalis. As to the kind of experiment: Antibacterial activity against Enterococcus faecalis assessed as inhibition of bacterial growth incubated for 3 hrs in presence of 50% plasma by dilution method. Format: functional.
Data set [9] has as its system Cell membrane. As to the kind of experiment: Induction of cytoplasmic membrane permeability in Enterococcus faecalis assessed as increase in fluorescence intensity at 8 times of MIC by PI staining based analysis.
A short description of data set [10]: Cytotoxicity against human HeLa cells assessed as cell viability at 64 microg/ml incubated for 24 hrs by CCK8 assay relative to control. The format is toxicity, cell-based. As to conditions: at 64 µg/mL, read-out: Activity. A general note: Tetrazolium dyes change colour on reduction, which living cells bring about.
Data set [11] concerns Enterococcus faecalis. As to the kind of experiment: Post-antibiotic affect in Enterococcus faecalis assessed as reduction in growth rate at 16 times of MIC measured after 1 hrs. The format is functional, organism-based.
The test system of data set [12] is Enterococcus faecalis. As to the kind of experiment: Induction of ROS accumulation in Enterococcus faecalis assessed as fluorescence intensity at 8 times of MIC incubated for 30 mins by DCFH-DA staining based microplate reader analysis. The format is functional. As to conditions: 0.5 h.
Data set [13] has as its system Cell membrane. As to the kind of experiment: Induction of cell membrane damage in Enterococcus faecalis assessed as nucleic acid leakage at 16 times of MIC incubated for 2 hrs by fluorescence spectrophotometric analysis. The format is subcellular.
Data set [14] deals with Cell membrane. As to the kind of experiment: Induction of cell membrane damage in Enterococcus faecalis assessed as nucleic acid leakage at 32 times of MIC incubated for 2 hrs by fluorescence spectrophotometric analysis. The format is subcellular.
Data set [15] relates to Enterococcus faecalis. As to the kind of experiment: Induction of ROS-dependent oxidative stress in Enterococcus faecalis assessed as decrease in GSH activity at 8 times of MIC (reference value: 1.34 %). Further details: scale not given: the % may be the effect or the level left. The format is functional.
Data set [16] relates to Stenotrophomonas maltophilia. As to the kind of experiment: Antibacterial activity against Stenotrophomonas maltophilia ATCC 17808 assessed as inhibition of bacterial growth incubated for 16 to 18 hrs by microbroth dilution method. Format: functional. The note with it: time 16-18 hrs, read-out: MIC100.
Data set [17] has as its system Enterococcus faecalis. As to the kind of experiment: Antibacterial activity against Enterococcus faecalis assessed as inhibition of bacterial growth incubated for 3 hrs in presence of 50% MHB by dilution method. Format: functional, organism-based.
Data set [18] deals with Cell membrane. As to the kind of experiment: Induction of cell membrane damage in Enterococcus faecalis assessed as nucleic acid leakage at 8 times of MIC incubated for 2 hrs by fluorescence spectrophotometric analysis. The format is subcellular.
The test system of data set [19] is Enterococcus faecalis. As to the kind of experiment: Drug resistance, ratio of MIC for Enterococcus faecalis measured after 15 days to MIC for Enterococcus faecalis measured after 16 to 18 hrs. The format is functional.

Converted amounts (≈) assume the structure as drawn. The source made the active and inactive calls. No cut-off for these calls is given here.

On to `CC(=O)NC[C@H]1CN(c2ccc(N3CCOCC3)c(F)c2)C(=O)O1` [LINEZOLID], for which the Activity in the data set on Enterococcus faecalis [1] is 0.49%; in the data set on Enterococcus faecalis [3], 1.36%; in the data set with Enterococcus faecalis [7], 3.24 log10CFU/ml; with Enterococcus faecalis [15], 13.01%. Further, the MIC with Escherichia coli is over 128 µg/mL; in the data set on Staphylococcus aureus it was 1 µg/mL (≈ 2.96 µM); in data set [16] it was over 128 µg/mL. Also, the HC50 at 1 h in data set [2] is over 1280 µg/mL. Moreover, the outcome in the data set on Cell membrane [4] and in the data set with Cell membrane [9] was inactive. The PAE in the data set on Enterococcus faecalis [5] worked out at 0.67 h. Moreover, the result in the data set on Enterococcus faecalis [6], in the data set on Enterococcus faecalis [8], in the data set with Enterococcus faecalis [11], with Cell membrane [13], with Cell membrane [14] and in the data set with Enterococcus faecalis [17] was Active. Also, the outcome in the data set on Cell membrane [18] was Active. Besides, the viability at 24 h, 64 microg/ml in data set [10] amounted to 56.5%. Also, in the data set on Enterococcus faecalis [12], the Flu intensity was 377 a.u.
As for `CCn1cc(C(=O)O)c(=O)c2cc(F)c(N3CCNCC3)cc21` [NORFLOXACIN], the Ratio in the data set on Enterococcus faecalis [19] stood at 4.
